Experimental data taken from paper PMC10927086, “Effects of structurally distinct human HDAC6 and HDAC6/HDAC8 inhibitors against S. mansoni larval and adult worm stages” (PLOS Neglected Tropical Diseases, 2024).
Read-outs that look alike come from different tables or passages of the source.

Legend:
[1] = test system: S. mansoni eggs laid by worm pairs; assay: Egg counts and egg maturation staging (Vogel and Prata) in vitro; type: cell-based, Schistosoma mansoni; conditions: for percent of eggs that are viable at the given maturation stage at 20 µM / percent of eggs that are viable at the given maturation stage at 50 µM: Schistosoma mansoni
Source text: The eggs produced by worm pairs in vitro were counted at day 3 upon treatment using an inverted Leica DM IL microscope (Leica Microsystems, Wetzlar, Germany). Images were captured with a BX41 Olympus (Olympus, Tokyo, Japan) microscope and a brightfield objective 10× served by an Olympus DP23 microscope digital camera and visualized using “CellSens Entry” software (version 3.1.1). Egg maturation morphological score was assigned based on the Vogel and Prata’s staging system of egg maturation previously reported.
Therefore at 72 h upon worm pairs treatment the eggs were counted and classified by microscopic observation according to the Vogel and Prata staging system of egg maturation and grouped as immature (stages I and II), intermediate/developed (stages III–V), viable or damaged eggs.
Panel B. Histograms represent the percentages of eggs at different maturation stages +/- SEM counted at 72 h after treatment; 5–6 microscopy images of at least 3 independent experiments were analyzed. Filled red triangles indicate viable eggs at stages I–II (immature); empty red triangles indicate damaged/morphological abnormal eggs at stages I–II (immature); filled red arrows indicate viable eggs at stages III–V (intermediate/developed); empty red arrows indicate damaged/morphological abnormal eggs at stages III-V; ef, egg fragments; sp, sperm cells; oc, oocyte. Scale Bars = 200 μm.

[2] = test system: adult S. mansoni worm pairs (ovary, ootype, vitellarium, gut); assay: Carmine-red staining and confocal laser scanning microscopy of adult worm pairs; type: cell-based, Schistosoma mansoni; conditions: 72 h
Protocol: Carmine Red staining was performed as previously described. […] Images were collected as a single stack.
To characterize the phenotypic alterations induced by compound treatment in more detail, carmine-red staining, followed by confocal laser scanning microscopy (CLSM) analysis was performed (Fig 5). Sublethal doses of compounds were chosen to preserve the overall parasite viability and pairing. For each compound, 3–5 couples in two independent experiments were analyzed and images of ootype, ovary, vitellarium, testis, gut, and parenchyma were recorded. […] The vitellarium retains a preserved structure in all analyzed samples. […] Accumulation of carmine-red positive particle aggregates was also present in the lumen of the NF2839-treated male worms (Fig 5).
Fig 5 Confocal microscopy of carmine-red stained adult worm pairs treated with quinolone-based HDAC inhibitors. […] The ovary, ootype and gut are shown. Immature oocytes (io), mature oocytes (mo), ootype (ot) and gastrodermis (ga) are labeled. In the Figure, red filled triangles indicate degenerated mo; empty red triangles indicate egg fragments in the ootypes; asterisks indicate deformed egg in the ootype and carmine red aggregates in the gut lumen, filled red arrows indicate the ga in the gut. Scale bars: 50 μm.

[3] = 72 h, NF2839 5 and 10 μM, NF2836 20 and 50 μM

Cn1c(=O)c(OCc2ccc(C(=O)NO)cc2)c(C2CCCCC2)c2ccccc21 [NF2836]
% Stage I/II damaged ([1]; 20 µM, exp.1): 97.1%
%Stage III/IV/V damaged ([1]; 20 µM, exp.1): 0%
Stage I/II damaged counts ([1]; 20 µM, exp.1): 608
Stage I/II viable (egg counts) ([1]; 20 µM, exp.1): 18
Stage II/IV/V viable (egg counts) ([1]; 20 µM, exp.1): 0
Stage III/IV/V damaged (egg counts) ([1]; 20 µM, exp.1): 0
egg counts ([1]; 20 µM, exp.1): 626
% Stage I/II damaged ([1]; 20 µM, exp.2): 16.0%
%Stage III/IV/V damaged ([1]; 20 µM, exp.2): 0%
Stage I/II damaged counts ([1]; 20 µM, exp.2): 76
Stage I/II viable (egg counts) ([1]; 20 µM, exp.2): 378
Stage II/IV/V viable (egg counts) ([1]; 20 µM, exp.2): 19
Stage III/IV/V damaged (egg counts) ([1]; 20 µM, exp.2): 0
% Stage I/II damaged ([1]; 20 µM, exp.3): 79.8%
%Stage III/IV/V damaged ([1]; 20 µM, exp.3): 0%
Stage I/II damaged counts ([1]; 20 µM, exp.3): 408
Stage I/II viable (egg counts) ([1]; 20 µM, exp.3): 103
Stage II/IV/V viable (egg counts) ([1]; 20 µM, exp.3): 0
Stage III/IV/V damaged (egg counts) ([1]; 20 µM, exp.3): 0
egg counts ([1]; 20 µM, exp.3): 511
% Stage I/II damaged, Media ([1]; 20 µM, mean of experiments): 64.3%
%Stage III/IV/V damaged, Media ([1]; 20 µM, mean of experiments): 0%
% Stage I/II damaged ([1]; 50 µM, exp.1): 99.8%
%Stage III/IV/V damaged ([1]; 50 µM, exp.1): 0%
Stage I/II damaged counts ([1]; 50 µM, exp.1): 448
Stage I/II viable (egg counts) ([1]; 50 µM, exp.1): 1
egg counts ([1]; 50 µM, exp.1): 449
% Stage I/II damaged ([1]; 50 µM, exp.2): 92.6%
%Stage III/IV/V damaged ([1]; 50 µM, exp.2): 0%
Stage I/II damaged counts ([1]; 50 µM, exp.2): 287
Stage I/II viable (egg counts) ([1]; 50 µM, exp.2): 23
egg counts ([1]; 50 µM, exp.2): 310
% Stage I/II damaged, Media ([1]; 50 µM, mean of experiments): 96.2%
%Stage III/IV/V damaged, Media ([1]; 50 µM, mean of experiments): 0%
egg damage / viability [1, 3]: eggs appeared seriously damaged and not viable
egg maturation (Vogel and Prata staging) [1, 3]: essentially all eggs were arrested in stage I/II
number of eggs laid by worm pairs [1, 3]: did not observe a decrease in the number of eggs
percent of eggs that are viable at the given maturation stage at 20 µM ([1]; 20 µM, exp.1, read-out: % Stage I/II viable): 2.9%
percent of eggs that are viable at the given maturation stage at 20 µM ([1]; 20 µM, exp.1, read-out: %Stage II/IV/V viable): 0%
percent of eggs that are viable at the given maturation stage at 20 µM ([1]; 20 µM, exp.2, read-out: % Stage I/II viable): 79.6%
percent of eggs that are viable at the given maturation stage at 20 µM ([1]; 20 µM, exp.2, read-out: %Stage II/IV/V viable): 4%
percent of eggs that are viable at the given maturation stage at 20 µM ([1]; 20 µM, exp.3, read-out: % Stage I/II viable): 20.2%
percent of eggs that are viable at the given maturation stage at 20 µM ([1]; 20 µM, exp.3, read-out: %Stage II/IV/V viable): 0%
percent of eggs that are viable at the given maturation stage at 20 µM ([1]; 20 µM, mean of experiments, read-out: % Stage I/II viable, Media): 34.2%
percent of eggs that are viable at the given maturation stage at 20 µM ([1]; 20 µM, mean of experiments, read-out: %Stage II/IV/V viable, Media): 1.3%
percent of eggs that are viable at the given maturation stage at 50 µM ([1]; 50 µM, exp.1, read-out: % Stage I/II viable): 0.223%
percent of eggs that are viable at the given maturation stage at 50 µM ([1]; 50 µM, exp.1, read-out: %Stage II/IV/V viable): 0%
percent of eggs that are viable at the given maturation stage at 50 µM ([1]; 50 µM, exp.2, read-out: % Stage I/II viable): 7.4%
percent of eggs that are viable at the given maturation stage at 50 µM ([1]; 50 µM, exp.2, read-out: %Stage II/IV/V viable): 0%
percent of eggs that are viable at the given maturation stage at 50 µM ([1]; 50 µM, mean of experiments, read-out: % Stage I/II viable, Media): 3.8%
percent of eggs that are viable at the given maturation stage at 50 µM ([1]; 50 µM, mean of experiments, read-out: %Stage II/IV/V viable, Media): 0%
samples with decrease of cellularity in the ovary mature compartment ([2]; 50 uM): 5/11
ootype content ([2]; higher concentration (NF2836 50 μM, NF2839 10 μM)): either an empty ootype or no properly developed eggs and/or egg fragments
gut morphology ([2]; higher concentration (NF2836 50 μM, NF2839 10 μM), all worms, in particular males): gut dilation with a dramatic decrease in the number of surface amplification and lumen epithelial thinning
ootype containing damaged eggs ([2]; lower concentrations (NF2836 20 μM, NF2839 5 μM)): 5/7
overall morphology of the ovary ([2]; sublethal doses): seemed not to be affected
